Test results reported in ChEMBL document CHEMBL3992562, “Multifunctional thioxanthone derivatives with acetylcholinesterase, monoamine oxidases and β-amyloid aggregation inhibitory activities as potential agents against Alzheimer's disease” (Bioorg Med Chem, 2017).

Key:
Homo sapiens = species on record: Homo sapiens; test: Selectivity index, ratio of IC50 for recombinant human MAO-A expressed in baculovirus infected BTI insect cells to IC50 for recombinant human MAO-B expressed in baculovirus infected BTI insect cells
[1] = Antioxidant activity assessed as trolox equivalent of AAPH-induced radical scavenging activity at 5 uM incubated for 15 mins prior to APPH challenge measured every minute for 90 mins by ORAC-FL assay; type: functional
Acetylcholinesterase = Acetylcholinesterase (Electrophorus electricus, UniProt O42275); test: Inhibition of electric eel AChE using acetylthiocholine iodide as substrate measured after 15 mins by Ellman's method
[2] = system: BuChE (butyrylcholinesterase); test: Inhibition of rat serum BuChE at 50 uM using S-butylthiocholine iodide as substrate measured after 15 mins by Ellman's method relative to control; settings: probe S-butylthiocholine iodide
[3] = Inhibition of cupric ion-mediated amyloid beta (1 to 42) aggregation at 25 uM measured after 24 hrs by ThT fluorescence assay relative to control
[4] = molecular target: T1, Amine oxidase [flavin-containing] A (Homo sapiens, UniProt P21397); test: Inhibition of recombinant human MAO-A expressed in baculovirus infected BTI insect cells using kynuramine as substrate after 30 mins by fluorimetric method
T1 sequence (P21397 whole entry): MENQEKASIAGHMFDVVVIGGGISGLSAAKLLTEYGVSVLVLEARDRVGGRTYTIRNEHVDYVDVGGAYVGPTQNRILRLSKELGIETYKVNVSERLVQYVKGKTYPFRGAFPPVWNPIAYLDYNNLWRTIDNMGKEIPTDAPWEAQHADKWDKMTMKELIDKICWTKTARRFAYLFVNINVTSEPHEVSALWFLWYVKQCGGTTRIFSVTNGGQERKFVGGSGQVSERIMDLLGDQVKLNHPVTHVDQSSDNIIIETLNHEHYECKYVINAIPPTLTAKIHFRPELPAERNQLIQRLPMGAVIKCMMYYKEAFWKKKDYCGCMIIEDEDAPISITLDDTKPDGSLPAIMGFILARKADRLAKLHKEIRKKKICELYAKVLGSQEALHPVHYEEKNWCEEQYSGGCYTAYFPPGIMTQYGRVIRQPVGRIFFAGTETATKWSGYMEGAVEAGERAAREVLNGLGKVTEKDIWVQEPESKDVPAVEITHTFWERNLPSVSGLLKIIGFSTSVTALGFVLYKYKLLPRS

[5] = molecular target: Amyloid-beta precursor protein (Homo sapiens) (UniProt P05067); test: Inhibition of self-induced amyloid beta (1 to 42) (unknown origin) aggregation at 25 uM measured after 24 hrs by ThT fluorescence assay relative to control
[6] = molecular target: T2, Amine oxidase [flavin-containing] B (Homo sapiens, UniProt P27338); test: Inhibition of recombinant human MAO-B expressed in baculovirus infected BTI insect cells using kynuramine as substrate after 30 mins by fluorimetric method; type: cell-based
T2 sequence (P27338 whole entry): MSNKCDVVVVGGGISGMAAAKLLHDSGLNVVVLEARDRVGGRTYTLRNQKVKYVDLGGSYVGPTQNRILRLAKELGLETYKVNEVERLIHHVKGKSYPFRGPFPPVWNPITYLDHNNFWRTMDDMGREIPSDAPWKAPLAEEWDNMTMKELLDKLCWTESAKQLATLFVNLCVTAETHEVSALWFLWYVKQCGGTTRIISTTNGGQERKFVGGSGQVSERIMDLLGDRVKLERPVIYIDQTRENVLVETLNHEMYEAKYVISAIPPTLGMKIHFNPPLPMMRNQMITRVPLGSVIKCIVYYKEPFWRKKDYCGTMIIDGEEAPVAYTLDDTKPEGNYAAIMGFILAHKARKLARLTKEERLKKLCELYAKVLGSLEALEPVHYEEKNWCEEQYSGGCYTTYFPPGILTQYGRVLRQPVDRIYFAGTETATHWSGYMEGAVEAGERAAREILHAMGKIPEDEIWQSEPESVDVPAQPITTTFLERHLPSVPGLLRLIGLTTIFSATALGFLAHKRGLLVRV

[7] = Permeability of the compound at 100 ug/ml after 18 hrs by PAMPA; type: physicochemical; settings: read-out: permeability

Sequence of Amyloid-beta precursor protein (Homo sapiens) (P05067 whole entry): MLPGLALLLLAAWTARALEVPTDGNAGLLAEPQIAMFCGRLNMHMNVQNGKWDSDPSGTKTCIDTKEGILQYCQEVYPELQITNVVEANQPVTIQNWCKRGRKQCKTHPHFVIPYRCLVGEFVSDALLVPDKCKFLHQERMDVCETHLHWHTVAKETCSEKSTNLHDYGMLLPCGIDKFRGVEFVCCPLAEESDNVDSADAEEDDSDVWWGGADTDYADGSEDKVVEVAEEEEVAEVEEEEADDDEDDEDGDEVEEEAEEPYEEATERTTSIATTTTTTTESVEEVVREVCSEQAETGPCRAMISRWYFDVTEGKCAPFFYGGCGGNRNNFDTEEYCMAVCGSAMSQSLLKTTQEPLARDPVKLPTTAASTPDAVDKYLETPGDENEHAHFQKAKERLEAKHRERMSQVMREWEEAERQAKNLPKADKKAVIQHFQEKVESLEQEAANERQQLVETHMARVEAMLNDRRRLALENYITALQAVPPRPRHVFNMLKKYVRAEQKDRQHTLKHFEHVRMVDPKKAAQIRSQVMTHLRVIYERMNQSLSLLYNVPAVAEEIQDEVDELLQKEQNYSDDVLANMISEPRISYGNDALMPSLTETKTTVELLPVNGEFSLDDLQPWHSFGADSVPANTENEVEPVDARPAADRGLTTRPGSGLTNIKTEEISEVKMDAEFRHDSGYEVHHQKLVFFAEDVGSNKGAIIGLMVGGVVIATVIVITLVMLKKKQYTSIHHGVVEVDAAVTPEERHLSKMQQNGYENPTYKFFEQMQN
Sequence of Acetylcholinesterase (O42275 whole entry): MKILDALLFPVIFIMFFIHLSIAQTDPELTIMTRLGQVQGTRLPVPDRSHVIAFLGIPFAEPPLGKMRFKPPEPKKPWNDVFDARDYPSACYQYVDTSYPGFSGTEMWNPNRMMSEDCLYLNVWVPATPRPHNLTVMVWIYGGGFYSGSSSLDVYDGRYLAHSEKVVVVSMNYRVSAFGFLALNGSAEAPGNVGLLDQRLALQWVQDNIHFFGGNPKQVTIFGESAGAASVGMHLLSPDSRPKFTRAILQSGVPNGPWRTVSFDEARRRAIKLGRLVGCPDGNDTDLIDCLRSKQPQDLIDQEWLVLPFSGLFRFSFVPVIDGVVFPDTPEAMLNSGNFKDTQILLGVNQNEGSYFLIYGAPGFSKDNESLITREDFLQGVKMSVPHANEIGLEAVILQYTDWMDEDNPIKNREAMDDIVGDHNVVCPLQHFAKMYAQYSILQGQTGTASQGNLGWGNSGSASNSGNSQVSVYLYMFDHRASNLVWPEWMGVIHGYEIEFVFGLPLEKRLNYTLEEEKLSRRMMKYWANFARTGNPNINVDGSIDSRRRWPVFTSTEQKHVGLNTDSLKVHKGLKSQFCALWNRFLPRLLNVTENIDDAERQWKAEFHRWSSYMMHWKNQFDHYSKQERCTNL

Structure (SMILES) | Ratio IC50 (Homo sapiens) | Activity [1] [µMequiv/µM] | IC50 (Acetylcholinesterase) [µM] | inhibition at 0.25 h, 50 µM [2] [%] | inhibition [3] [%] | IC50 [4] [µM] | inhibition [5] [%] | IC50 [6] [µM] | Papp at 18 h, 100 ug/ml [7] [×10⁻⁶ cm/s]
CN(CCCCCCOc1cc(O)c2c(=O)c3ccccc3sc2c1)Cc1ccccc1 | 1.63 | 0.37 | 0.32 | < 5 | 76.8 | 0.57 | 47.5 | 0.35 | 
CN(CCCCOc1cc(O)c2c(=O)c3ccccc3sc2c1)Cc1ccccc1 | 1.54 | 1.18 | 12.4 | < 5 | 88.6 | 0.57 | 79.5 | 0.37 | 
CCN(CCCCCCOc1cc(O)c2c(=O)c3ccccc3sc2c1)Cc1ccccc1OC | 2.83 | 0.83 | 11.5 | 13.9 | 86.3 | 1.3 | 78.7 | 0.46 | 
CCN(CCCCCCOc1cc(O)c2c(=O)c3ccccc3sc2c1)Cc1ccc(N(C)C)cc1 | 3.21 | 1.37 | 33.8 | < 5 | 91.3 | 1.25 | 76.3 | 0.39 | 
CCN(CCCCCCOc1cc(O)c2c(=O)c3ccccc3sc2c1)Cc1ccccc1 | 4.36 | 0.17 | 0.58 | 8.83 | 76.4 | 1.44 | 50.6 | 0.33 | 4.12
COc1ccccc1CN(C)CCCOc1cc(O)c2c(=O)c3ccccc3sc2c1 | 1.04 | 0.22 | 28.7 | 30.2 | 77.8 | 6.31 | 45.2 | 6.09 | 
CN(CCCOc1cc(O)c2c(=O)c3ccccc3sc2c1)Cc1ccccc1 | 9.25 | 0.48 | 11.2 | < 5 | 81.1 | 16 | 40.5 | 1.73 | 
COc1cc(/C=C/C(=O)CC(=O)/C=C/c2ccc(O)c(OC)c2)ccc1O |  | 2.43 |  |  | 70 |  |  |  | 
CCN(CCCCOc1cc(O)c2c(=O)c3ccccc3sc2c1)Cc1ccc(N(C)C)cc1 | 0.45 | 1.5 | 25.4 | 7.15 | 81.9 | 1 | 77.1 | 2.2 | 
CCN(CCCOc1cc(O)c2c(=O)c3ccccc3sc2c1)Cc1ccccc1N(C)C | 1.59 | 0.35 | 0.25 | 22.4 | 75.7 | 5.94 | 46.9 | 3.73 | 
CCN(CCCCOc1cc(O)c2c(=O)c3ccccc3sc2c1)Cc1ccccc1 | 1.26 | 1 | 22 | < 5 | 82.1 | 0.34 | 75.8 | 0.27 | 
